Measurements as given in patent US7792665B2, “Method for designing a compound based on the three dimensional structure of phosphoinositide dependent protein kinase 1 (PDK1)” (Medical Research Council, priority 2002, dated 2010).
Positions count from the first letter of the chain named. Where a SMILES comes first, the peptide text is derived from it. [ ]: non-standard residue; d: D form. pT = C[C@@H](OP(=O)(O)O)[C@H](N)C(=O)O

Key:
[1] = molecular target: T1, mutant of PDK1 in which both Lys76 and Arg131 were changed to Ala (Homo sapiens, UniProt O15530, K76A/R131A); assay: PDK1 catalytic activity towards T308tide, activation by peptides, Lys76 and Arg131 to Ala double mutant; assay type: biochemical; conditions: peptide 0.3 and 1 mM, compared with PDK1[R131A]
T1 construct: GST (N); made in house; host or cells: human embryonic kidney 293 cells (pEBG2T vector)
Experimental: (§1) C. Activation of the indicated forms of PDK1 by 56K-pHM and S6K-HM. PDK1 activity was measured using the peptide substrate (T308tide) in the presence of the indicated concentrations of 56K-pHM (closed circles) and S6K-HM (open circles) as described in the methods. Assays were performed in triplicate and similar results obtained in 2 separate experiments. The results are the average—SD for a single experiment.
(§2) The ability of wild type and mutant PDK1 to phosphorylate the synthetic peptide T308tide ([…] ([Biondi et al., 2000]) (SEQ ID NO:108) was carried out in 30 μl assays containing 100 ng of wild type or mutant PDK1, 50 mM Tris/HCl pH 7.5, 0.1% 13-mercaptoethanol, 10 mM MgCl2, 100 μM [32γ P]ATP (200 cpm/pmol), 0.5 μM microcystin-LR, 1 mM T308tide in the presence or absence of the indicated concentrations of the 56K-pHM peptide ([…](P)YVAPSV) (SEQ ID NO:104) or 56K-HM. peptide ([…]) (SEQ ID NO:105). After incubation for 10 min at 30° C., 25 μl of the resultant mixture was spotted into P81 phosphocellulose paper (2×2 cm) and the papers washed and analysed as described previously for assays of MAP kinase. Control assays were carried out in parallel in which either PDK1, or peptide substrate were omitted; these values were always less than 5% of the activity measured in the presence of these reagents. […]

[2] = molecular target: T2, wild type PDK1 (Homo sapiens, UniProt O15530); assay: PDK1 catalytic activity towards T308tide, activation by peptides, wild type PDK1; assay type: biochemical; set-up: made in house; conditions: T308tide substrate
T2 sequence (O15530 1-556): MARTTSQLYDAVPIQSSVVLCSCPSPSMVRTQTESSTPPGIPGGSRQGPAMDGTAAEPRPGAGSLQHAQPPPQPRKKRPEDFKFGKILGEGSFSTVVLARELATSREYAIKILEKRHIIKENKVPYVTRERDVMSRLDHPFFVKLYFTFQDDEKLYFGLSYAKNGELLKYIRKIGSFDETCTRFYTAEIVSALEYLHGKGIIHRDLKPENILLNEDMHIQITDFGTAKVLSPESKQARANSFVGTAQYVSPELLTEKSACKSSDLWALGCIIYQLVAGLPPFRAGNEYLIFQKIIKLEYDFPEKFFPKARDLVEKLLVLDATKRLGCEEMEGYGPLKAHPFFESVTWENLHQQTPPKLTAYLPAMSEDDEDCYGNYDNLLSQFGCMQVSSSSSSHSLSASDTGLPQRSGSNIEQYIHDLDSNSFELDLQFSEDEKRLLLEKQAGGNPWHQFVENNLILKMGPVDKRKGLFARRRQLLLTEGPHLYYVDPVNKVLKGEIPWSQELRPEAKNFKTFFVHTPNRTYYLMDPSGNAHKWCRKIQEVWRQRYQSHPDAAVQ
Experimental: as §1, §2

[3] = molecular target: T3, PDK1[T148A] (Homo sapiens, UniProt O15530, T148A); assay: Surface plasmon resonance (BiaCore) binding, PDK1[T148A]; set-up: made in house; host or cells: human embryonic kidney 293 cells (pEBG2T vector)
T3 sequence (O15530 1-556 T148A): T2 sequence (O15530 1-556) with T148A
Experimental: Binding and activation of wild type and mutant forms of PDK1 to a phosphopeptide derived from the hydrophobic motif of S6K1. The binding of the wild type (wt) PDK1 and indicated mutants to a phosphopeptide comprising the hydrophobic motif of S6K1 (S6K-pHM: […]*YVAPSV, where T* indicates phospho-threonine, SEQ ID NO:104) was analysed by surface plasmon resonance as described in the Materials and Methods.
A. The sensor chip SA was coated with 12RUs of the biotinylated S6K-pHM peptide and the binding was analysed following injection of 270 nM wild type PDK1, PDK1 [T148A] and PDK1 [K76A]. […] (data not shown).
B. As in A. except that binding was analysed over a range of PDK1 concentrations (2-2150 nM). The response level at the steady state binding is plotted versus the log of the PDK1 concentration. The estimated Kd was obtained by fitting the data to a sigmoid curve using Kaleidagraph software.
Binding was analysed in a BiaCore 3000 system (BiaCore AB, Stevenage, UK). Biotinylated S6K-pHM (Biotin-C12-[…](P)YVAPSV) (SEQ ID NO:104) or the non-phosphorylated form of this peptide S6K-HM was bound to an streptavidin-coated Sensor chip (SA) (12 response units, RU). […] Steady state binding was determined at each concentration. Dissociation of PDK1 from the phospho-peptide was monitored over a 1 min period. […]

T1 sequence (O15530 whole entry K76A/R131A): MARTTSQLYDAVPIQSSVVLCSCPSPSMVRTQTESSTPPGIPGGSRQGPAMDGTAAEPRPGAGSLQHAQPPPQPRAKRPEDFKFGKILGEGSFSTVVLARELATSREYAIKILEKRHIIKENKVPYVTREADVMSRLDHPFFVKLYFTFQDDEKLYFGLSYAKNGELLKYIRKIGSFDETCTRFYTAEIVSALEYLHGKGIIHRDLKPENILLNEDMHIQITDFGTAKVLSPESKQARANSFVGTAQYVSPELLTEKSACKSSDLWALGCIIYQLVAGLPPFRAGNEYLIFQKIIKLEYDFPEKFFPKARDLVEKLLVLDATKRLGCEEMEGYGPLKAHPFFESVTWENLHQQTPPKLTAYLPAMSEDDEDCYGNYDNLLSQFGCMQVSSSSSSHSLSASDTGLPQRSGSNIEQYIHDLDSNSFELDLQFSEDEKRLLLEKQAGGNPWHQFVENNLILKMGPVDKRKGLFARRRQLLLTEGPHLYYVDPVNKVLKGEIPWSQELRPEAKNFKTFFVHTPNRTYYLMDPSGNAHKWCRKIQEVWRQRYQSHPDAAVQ

CC(C)C[C@H](NC(=O)[C@H](Cc1ccccc1)NC(=O)[C@@H](NC(=O)[C@H](CCC(N)=O)NC(=O)[C@H](CC(N)=O)NC(=O)[C@H](C)NC(=O)[C@H](CO)NC(=O)[C@H](CCC(=O)O)NC(=O)[C@@H](N)CO)C(C)C)C(=O)NCC(=O)N[C@@H](Cc1ccccc1)C(=O)N[C@H](C(=O)N[C@@H](Cc1ccc(O)cc1)C(=O)N[C@H](C(=O)N[C@@H](C)C(=O)N1CCC[C@H]1C(=O)N[C@@H](CO)C(=O)N[C@H](C(=O)O)C(C)C)C(C)C)[C@@H](C)OP(=O)(O)O [S6K-pHM] (H-SESANQVFLGF[pT]YVAPSV-OH; N-terminus and C-terminus assumed)
activation of Lys76/Arg131 to Ala double mutant [1]: activated even less significantly
maximal activation of PDK1 [2]: 5 fold
dissociation of PDK1[T148A] from peptide compared with wild type PDK1 or PDK1[K76A] ([3]; BiaCore, 270 nM PDK1): markedly slower
higher affinity of PDK1[T148A] than wild type PDK1 ([3]; relative to wild type PDK1): about 10 fold
